Data taken from ChEMBL document CHEMBL5390250, “Synthesis and biological evaluation of bi-modal BODIPY-conjugated Hoechst applicable for Auger-electron and photodynamic cancer therapy” (Bioorg Med Chem Lett, 2023).
Values belong to the compound of their own block, whether it stands above or below them. Active and inactive are the calls of the source. The calls are words filed in the database; no cut-off is given here.

Legend:
HeLa [1] = experiment: Antiproliferative activity against human HeLa cells assessed as auger electron mediated reduction in cell viability at 18.5 kBq measured after 6 hrs by MTT assay relative to control; type: functional
[2] = Drug uptake in human HeLa cells assessed as increase in intracellular fraction measured upto 6 hrs; type: ADME, cell-based
[3] = Drug uptake in nucleus of human HeLa cells measured upto 6 hrs; type: ADME, subcellular
HeLa [4] = experiment: Antiproliferative activity against human HeLa cells assessed as auger electron mediated reduction in cell viability measured after 6 hrs by MTT assay; type: functional, cell-based; settings: dose <= 18.5 kBq, tested as the 125I-labelled form
[5] = Induction of singlet oxygen production in MeOH assessed as singlet oxygen quantum yield; type: functional
HeLa [6] = experiment: Photocytotoxicity against human HeLa cells assessed as reduction in cell viability preincubated for 24 hrs followed by light irradiation at 525 nm for 6 mins by MTT assay; type: functional, cell-based; settings: for Activity: dose <= 1600.0 nM, time 1446.0 min; for IC50: light or radiation study
HeLa [7] = experiment: Induction of DNA damage in human HeLa cells assessed as increase in gamma H2AX foci density in nucleus measured after 2 hrs by immmunofluorescence staining based analysis; type: functional, cell-based; settings: dose <= 18.5 kBq, tested as the 125I-labelled form
[8] = Fluorescence property of compound in MeOH assessed as quantum yield by spectroscopic analysis; type: physicochemical
[9] = Fluorescence property of compound in MeOH assessed as molar extinction coefficient by spectroscopic analysis; type: physicochemical
HeLa [10] = experiment: Photocytotoxicity against human HeLa cells assessed as reduction in cell viability upto 1600 nM measured after 24 hrs under dark condition by MTT assay; type: functional, cell-based
[11] = Absorption property of compound in MeOH assessed as maximal wavelength by spectroscopic analysis; type: physicochemical
HeLa [12] = experiment: Antiproliferative activity against human HeLa cells assessed as reduction in cell viability measured after 6 hrs by MTT assay; type: functional, cell-based
[13] = Emission property of compound in MeOH assessed as maximal wavelength by spectroscopic analysis; type: physicochemical
[14] = Induction of singlet oxygen production in MeOH assessed as singlet oxygen quantum yield at 410 nm by DPBF based assay; type: functional
HeLa [15] = experiment: Induction of DNA damage in human HeLa cells assessed as increase in gamma H2AX foci in nuclei at 18.5 kBq measured after 2 hrs by immmunofluorescence staining based analysis; type: functional, cell-based; settings: tested as the 125I-labelled form
HeLa [16] = experiment: Photocytotoxicity against human HeLa cells assessed as reduction in cell viability at 1600 nM preincubated for 24 hrs followed by light irradiation at 525 nm for 6 mins by MTT assay relative to control; type: functional
[17] = Fluorescence property of compound in toluene assessed as quantum yield; type: physicochemical
[18] = Absorption property of compound in MeOH assessed as maximal wavelength; type: physicochemical
[19] = Emission property of compound in MeOH assessed as maximal wavelength; type: physicochemical
[20] = Fluorescence property of compound in MeOH assessed as molar extinction coefficient; type: physicochemical

Drug uptake [2]: Active | Drug uptake [3]: Active
Compound: CC1=C([125I])C(C)=[N+]2C1=C(c1ccc(C(=O)NCCCCOc3ccc(-c4nc5ccc(-c6nc7ccc(N8CCN(C)CC8)cc7[nH]6)cc5[nH]4)cc3)cc1)c1c(C)cc(C)n1[B-]2(F)F
Activity (HeLa [1]): 60%

Compound: CN(C)c1ccc2cc3ccc(N(C)C)cc3[n+](CCCCCNC(=O)c3ccc(I)cc3)c2c1
Activity (HeLa [4]): Dose-Dependent Effect

Drug uptake [2]: Active | Drug uptake [3]: Active
Compound: CC1=C([125I])C(C)=[N+]2C1=C(c1ccc(C(=O)NCCCCOc3ccc(-c4nc5ccc(-c6nc7ccc(N8CCN(C)CC8)cc7[nH]6)cc5[nH]4)cc3)cc1)c1c(C)c(I)c(C)n1[B-]2(F)F
Activity (HeLa [1]): 43%

Compound: O=C(O)c1c(Cl)c(Cl)c(Cl)c(Cl)c1-c1c2cc(I)c(=O)c(I)c-2oc2c(I)c(O)c(I)cc12
Activity [5]: 0.76

Compound: CN(C)c1ccc2cc3ccc(N(C)C)cc3[n+](CCCCCNC(=O)c3ccc([125I])cc3)c2c1
Activity (HeLa [1]): 64%

Activity [8]: 0.04 | Activity [9]: 20600 M⁻¹ cm⁻¹ | Activity [11]: 533 nm | Activity [13]: 552 nm
Compound: CC1=C(I)C(C)=[N+]2C1=C(c1ccc(C(=O)NCCCCOc3ccc(-c4nc5ccc(-c6nc7ccc(N8CCN(C)CC8)cc7[nH]6)cc5[nH]4)cc3)cc1)c1c(C)c(I)c(C)n1[B-]2(F)F
Activity (HeLa [4]): Dose-Dependent Effect | Activity (HeLa [6]): Dose-Dependent Effect | IC50 (HeLa [6]): 195 nM | Activity (HeLa [7]): Dose-Dependent Effect | Activity (HeLa [10]): inactive | Activity (HeLa [12]): inactive | Activity [14]: 0.41 | Activity (HeLa [15]): Active | Activity (HeLa [16]): 29%

Activity [17]: 0.11
Compound: CC1=C(I)C(C)=[N+]2C1=C(c1ccc(C(=O)ON3C(=O)CCC3=O)cc1)c1c(C)cc(C)n1[B-]2(F)F

Activity [18]: 517 nm | Activity [8]: 0.06 | Activity [19]: 532 nm | Activity [20]: 22000 M⁻¹ cm⁻¹
Compound: CC1=C(I)C(C)=[N+]2C1=C(c1ccc(C(=O)NCCCCOc3ccc(-c4nc5ccc(-c6nc7ccc(N8CCN(C)CC8)cc7[nH]6)cc5[nH]4)cc3)cc1)c1c(C)cc(C)n1[B-]2(F)F
Activity (HeLa [4]): Dose-Dependent Effect | Activity (HeLa [6]): Dose-Dependent Effect | IC50 (HeLa [6]): 702 nM | Activity (HeLa [7]): Dose-Dependent Effect | Activity (HeLa [10]): inactive | Activity [14]: 0.32 | Activity (HeLa [15]): Active | Activity (HeLa [16]): 50%
